Test results as given in PubChem BioAssay (NCI).
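At the GI50, growth is halved. Definition used: TGI = concentration required for complete inhibition of growth.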

Assays:
Test in all cases: inhibition of tumour cell growth, NCI panel, 384-well format
[1] = system: SF-295 CNS
[2] = system: A549 NSCLC
[3] = system: HS 578T breast
[4] = system: SF-539 CNS
[5] = system: OVCAR-5 ovarian
[6] = system: NCI-H226 lung
[7] = system: OVCAR-8 ovarian
[8] = system: T-47D breast
[9] = system: 786-0 renal
[10] = system: SK-OV-3 ovarian
[11] = system: MDA-MB-231 breast
[12] = system: HOP-92 NSCLC
[13] = system: SK-MEL-5 melanoma
[14] = system: SW-620 colon
[15] = system: OVCAR-3 ovarian
[16] = system: MOLT-4 leukemia
[17] = system: M14 melanoma
[18] = system: MCF7 breast
[19] = system: NCI-H522 lung
[20] = system: LOX IMVI melanoma
[21] = system: KM12 colon
[22] = system: SF-268 CNS
[23] = system: NCI-H460 NSCLC
[24] = system: ACHN renal
[25] = system: UACC-62 melanoma
[26] = system: UACC-257 melanoma
[27] = system: NCI-H23 lung
[28] = system: RPMI-8226 leukemia
[29] = system: PC-3 prostate
[30] = system: SN12C renal
[31] = system: MALME-3M melanoma
[32] = system: SK-MEL-28 melanoma
[33] = system: EKVX NSCLC
[34] = system: HCT-15 colon
[35] = system: OVCAR-4 ovarian
[36] = system: NCI/ADR-RES ovarian
[37] = system: SNB-19 CNS
[38] = system: IGROV1 ovarian
[39] = system: CAKI-1 renal
[40] = system: HCC-2998 colon
[41] = system: RXF 393 renal
[42] = system: COLO 205 colon
[43] = system: CCRF-CEM leukemia
[44] = system: HT29 colon
[45] = system: DU-145 prostate
[46] = system: MDA-MB-435 melanoma
[47] = system: SR leukemia
[48] = system: MDA-MB-468 breast
[49] = system: UO-31 renal
[50] = system: TK-10 renal
[51] = system: K-562 leukemia
[52] = system: A498 renal
[53] = system: NCI-H322M lung
[54] = system: HL-60(TB) leukemia
[55] = system: SNB-75 CNS
[56] = system: BT-549 breast
[57] = system: HOP-62 NSCLC

SMILES: Cc1cc(-c2ccc(C3C(C#N)=C(N)Oc4c3c(=O)oc3ccccc43)cc2)cnc1F (centres undefined)
- GI50 [1]: 46.9 µM
- TGI [1]: > 100 µM
- GI50 [2]: 54.5 µM
- TGI [2]: > 100 µM
- GI50 [3]: 29.1 µM
- TGI [3]: 79.9 µM
- GI50 [4]: 24.8 µM
- TGI [4]: 55.6 µM
- GI50 [5]: 37.4 µM
- TGI [5]: > 100 µM
- GI50 [6]: 18.4 µM
- TGI [6]: 59.3 µM
- GI50 [7]: 38.5 µM
- TGI [7]: > 100 µM
- GI50 [8]: 46.4 µM
- TGI [8]: > 100 µM
- GI50 [9]: 43.2 µM
- TGI [9]: > 100 µM
- GI50 [10]: 45.9 µM
- TGI [10]: > 100 µM
- GI50 [11]: 39.7 µM
- TGI [11]: > 100 µM
- GI50 [12]: 13.9 µM
- TGI [12]: 39.7 µM
- GI50 [13]: 29.8 µM
- TGI [13]: 78.1 µM
- GI50 [14]: 58.3 µM
- TGI [14]: > 100 µM
- GI50 [15]: 26.7 µM
- TGI [15]: 57.1 µM
- GI50 [16]: 15 µM
- TGI [16]: 28.4 µM
- GI50 [17]: 90.2 µM
- TGI [17]: > 100 µM
- GI50 [18]: 38 µM
- TGI [18]: > 100 µM
- GI50 [19]: 17.5 µM
- TGI [19]: 35.4 µM
- GI50 [20]: 21.9 µM
- TGI [20]: 45.4 µM
- GI50 [21]: > 100 µM
- TGI [21]: > 100 µM
- GI50 [22]: 50.1 µM
- TGI [22]: > 100 µM
- GI50 [23]: 37.1 µM
- TGI [23]: > 100 µM
- GI50 [24]: 42.6 µM
- TGI [24]: > 100 µM
- GI50 [25]: 40.1 µM
- TGI [25]: > 100 µM
- GI50 [26]: 58.1 µM
- TGI [26]: > 100 µM
- GI50 [27]: 29.6 µM
- TGI [27]: > 100 µM
- GI50 [28]: 14 µM
- TGI [28]: 33.5 µM
- GI50 [29]: 53.1 µM
- TGI [29]: > 100 µM
- GI50 [30]: 47.7 µM
- TGI [30]: > 100 µM
- GI50 [31]: 47.7 µM
- TGI [31]: > 100 µM
- GI50 [32]: > 100 µM
- TGI [32]: > 100 µM
- GI50 [33]: 43.7 µM
- TGI [33]: > 100 µM
- GI50 [34]: 18.9 µM
- TGI [34]: 39.3 µM
- GI50 [35]: 33.9 µM
- TGI [35]: > 100 µM
- GI50 [36]: 40 µM
- TGI [36]: > 100 µM
- GI50 [37]: 62.9 µM
- TGI [37]: > 100 µM
- GI50 [38]: 42.5 µM
- TGI [38]: > 100 µM
- GI50 [39]: 43.6 µM
- TGI [39]: > 100 µM
- GI50 [40]: 29.7 µM
- TGI [40]: 80.3 µM
- GI50 [41]: 17.4 µM
- TGI [41]: 32.2 µM
- GI50 [42]: 64.6 µM
- TGI [42]: > 100 µM
- GI50 [43]: 17.5 µM
- TGI [43]: 33.7 µM
- GI50 [44]: 25.1 µM
- TGI [44]: 65 µM
- GI50 [45]: 39.3 µM
- TGI [45]: > 100 µM
- GI50 [46]: 89 µM
- TGI [46]: > 100 µM
- GI50 [47]: 17.1 µM
- TGI [47]: 32.2 µM
- GI50 [48]: 24 µM
- TGI [48]: 49.2 µM
- GI50 [49]: 30.1 µM
- TGI [49]: > 100 µM
- GI50 [50]: 30.3 µM
- TGI [50]: 82.1 µM
- GI50 [51]: 33.9 µM
- TGI [51]: > 100 µM
- GI50 [52]: 31.3 µM
- TGI [52]: > 100 µM
- GI50 [53]: 25.4 µM
- TGI [53]: 67 µM
- GI50 [54]: 24.7 µM
- TGI [54]: 44.9 µM
- GI50 [55]: 40.9 µM
- TGI [55]: > 100 µM
- GI50 [56]: 27.9 µM
- TGI [56]: > 100 µM
- GI50 [57]: 34.7 µM
- TGI [57]: > 100 µM
